Assay results: patent publication US20080182859A1 (Curis, Inc., priority 2006, published 2008)
Where a name gives a salt, the structure may show the parent alone.

Key:
Format in all cases: cell-based
[1] = tested on: sonic hedgehog pathway; test: Hedgehog pathway Gli-luciferase reporter assay, TM3 cells; conditions: TM3 mouse Leydig cells
Method in brief: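 Luminescence read-out of gli-promoter luciferase in stably transfected cells; 11-point 1:3 dose curves, 24 h compound exposure in 0.5% FBS, ± octyl-modified Hh protein 1–5 ng/ml. AMAX as % of plate low/high controls; EC50 from curve; >20% AMAX counted active.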

[2] = tested on: sonic hedgehog pathway; test: Hedgehog pathway Gli-luciferase reporter assay, S12 cells; conditions: S12 mouse embryonic mesenchymal cells, read-out: S12 Avg. EC50
Description: Mouse (TM3: mouse Leydig cells; S12: mouse embryonic mesenchymal cells) and human (Daoy: human medulloblastoma cell; HepM: human embryonic palatal mesenchymal cell) cell lines are used to screen small molecules for their ability to modulate the activity of the sonic hedgehog pathway (Table 1, Table 2, and Table 3). Stable hedgehog pathway reporter cell lines are established by specific antibiotic selection following transfection of a reporter plasmid containing a luciferase gene located directly downstream from the gli promoter. Consequently, any observable changes in cellular luciferase activity may be attributed to changes in sonic hedgehog pathway activity in mouse and human cells, respectively, since gli is the major by-product of this pathway. To calculate activity, we generate an eleven point dose curve for each compound using 1:3 dilutions in 96 well assay plates. Each plate tested also contains low and high control to establish maximal pathway activation so to establish/compare a percentage activation of each tested compound (AMAX) on respective plates. Also we calculate EC50 values, or a concentration where the pathway will be exactly 50% activated, for each tested compound to determine potency. In these cell lines, compounds that register >20% AMAX values are considered active.
Stable hedgehog pathway reporter cell lines are established following specific antibiotic selection following transfection of a reporter plasmid In short, typically cells are plated in MicroTiter-plates at 10,000-20,000 cells per well, in growth media (containing 10%-20% FBS). After 48-72 hrs (HGL and DGL respectively) the media in the assay plates is switched to low-serum containing media (0.5% FBS). At that time compounds are added (at 1-5 μM) to the assay plates, in the presence or absence of hedgehog protein (octyl-modified version; 1-5 ng/ml). After another 24 hrs of incubation, the media from the assay plates is discarded and replaced with luciferase assay-mix. Subsequently, plates are incubated at RT for ˜15-30 mins and then read in a luminometer. [note: addition of the Hedgehog protein, although not critical, will sensitize the assay allowing the identification of weak actives].

[3] = tested on: sonic hedgehog pathway; test: Human hedgehog reporter assay HEPM-GliLuc (HGL); conditions: HepM human embryonic palatal mesenchymal cells, Gli-luciferase reporter
Method in brief: (§1)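 Reporter cells stably selected after gli-luciferase plasmid transfection; test article dosed over 11 points (1:3). Read as luminescence after 24 h treatment in 0.5% serum; activity >20% AMAX versus plate controls deemed active.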

[4] = tested on: sonic hedgehog pathway; test: Human hedgehog reporter assay Daoy-GliLuc (DGL); conditions: Daoy human medulloblastoma cells, Gli-luciferase reporter; read-out: Daoy Avg. EC50
Method in brief: as §1

Row | Structure (SMILES) | EC50 [1] [nM] | EC50 [4] [nM] | EC50 [2] [nM] | EC50 [3] [nM]
1 | CN[C@H]1CC[C@@H](N(Cc2cc(-c3cccnc3)ccc2OC)C(=O)c2sc3cccc(F)c3c2Cl)CC1 [360 (R16), 3-Chloro-4-fluoro-benzo[b]thiophene-2-carboxylic acid (2-methoxy-5-pyridin-3-yl-benzyl)-(4-methylamino-cyclohexyl)-amide dihydrochloride] | < 50 | < 50 | < 50 | < 50
2 | CN[C@H]1CC[C@@H](N(Cc2cc(-c3ccc(C(C)=O)cc3)ccc2OC)C(=O)c2sc3ccccc3c2Cl)CC1 [Compound 303, 3-Chloro-benzo[b]thiophene-2-carboxylic acid (4′-acetyl-4-methoxy-biphenyl-3-ylmethyl)-(4-methylamino-cyclohexyl)-amide hydrochloride] | < 50 | < 50 | < 50 | < 50
3 | CN[C@H]1CC[C@@H](N(Cc2cc(-c3ccnc(N)c3)ccc2OC)C(=O)c2sc3c(F)ccc(F)c3c2Cl)CC1 [Compound 355] | < 50 |  | < 50 | < 50
4 | CN[C@H]1CC[C@@H](N(Cc2cc(-c3ccncc3)ccc2O)C(=O)c2sc3c(F)ccc(F)c3c2Cl)CC1 [Compound 368, 3-Chloro-4,7-difluoro-benzo[b]thiophene-2-carboxylic acid (2-hydroxy-5-pyridin-4-yl-benzyl)-(4-methylamino-cyclohexyl)-amide dihydrochloride] |  | < 50 | < 50 | < 50
5 | COc1ccc(-c2cccnc2)cc1CN(C(=O)c1sc2cccc(F)c2c1Cl)[C@H]1CC[C@@H](N)CC1 [Compound 410, 3-Chloro-4-fluoro-benzo[b]thiophene-2-carboxylic acid (4-amino-cyclohexyl)-(2-methoxy-5-pyridin-3-yl-benzyl)-amide] |  | < 50 | < 50 | 
6 | CCOc1cc(-c2ccc(OC)c(CN(C(=O)c3sc4c(F)ccc(F)c4c3Cl)[C@H]3CC[C@H](NC)CC3)c2)ccn1 [Compound 414] |  | < 50 | 50 to 250 | 
7 | COc1ccc(-c2cncc(F)c2)cc1CN(C(=O)c1sc2c(F)ccc(F)c2c1Cl)[C@H]1CC[C@@H](N)CC1 [Compound 416] |  | 50 to 250 | < 50 | 
8 | COc1ccc(-c2ccncc2F)cc1CN(C(=O)c1sc2c(F)ccc(F)c2c1Cl)[C@H]1CC[C@@H](N)CC1 [Compound 417] |  | < 50 | < 50 | 
9 | COc1ccc(-c2cc[n+](C)cc2)cc1CN(C(=O)c1sc2c(F)ccc(F)c2c1Cl)[C@H]1CC[C@@H](N)CC1 [Compound 418] |  | < 50 | 1000 to 2500 | 
10 | CN[C@H]1CC[C@@H](N(Cc2cc(-c3ccc(NS(C)(=O)=O)nc3)ccc2OC)C(=O)c2sc3c(F)ccc(F)c3c2Cl)CC1 [Compound R10, 3-Chloro-4,7-difluoro-benzo[b]thiophene-2-carboxylic acid [5-(6-methanesulfonylamino-pyridin-3-yl)-2-methoxy-benzyl]-(4-methylamino-cyclohexyl)-amide dihydrochloride] | < 50 |  | < 50 | < 50

Continued, in another order:

Row | EC50 [1] [nM] | EC50 [4] [nM] | Structure (SMILES) | EC50 [2] [nM] | EC50 [3] [nM]
11 | < 50 |  | CN[C@H]1CC[C@@H](N(Cc2cc(-c3ccc(C(=O)N(C)C)cc3)ccc2OC)C(=O)c2sc3ccccc3c2Cl)CC1 [317 (R19)] | < 50 | < 50
12 | < 50 | < 50 | CN[C@H]1CC[C@@H](N(Cc2cc(-c3ccnc(C(N)=O)c3)ccc2OC)C(=O)c2sc3c(F)ccc(F)c3c2Cl)CC1 [354 (R17)] | < 50 | < 50
13 | < 50 | < 50 | CN[C@H]1CC[C@@H](N(Cc2cc(-c3ccc(N)nc3)ccc2OC)C(=O)c2sc3cccc(F)c3c2Cl)CC1 [362 (R13), 3-Chloro-4-fluoro-benzo[b]thiophene-2-carboxylic acid [5-(6-amino-pyridin-3-yl)-2-methoxy-benzyl]-(4-methylamino-cyclohexyl)-amide dihydrochloride] | < 50 | < 50
14 | < 50 |  | CN[C@H]1CC[C@@H](N(Cc2cc(-c3ccc(C(N)=O)cc3)ccc2OC)C(=O)c2sc3ccccc3c2Cl)CC1 [Compound 316, 3-Chloro-benzo[b]thiophene-2-carboxylic acid (4′-carbamoyl-4-methoxy-biphenyl-3-ylmethyl)-(4-methylamino-cyclohexyl)-amide hydrochloride] | < 50 | < 50
15 | < 50 |  | CN[C@H]1CC[C@@H](N(Cc2cc(-c3ccc(N)nc3)ccc2OC)C(=O)c2sc3ccccc3c2Cl)CC1 [Compound 319, 3-Chloro-benzo[b]thiophene-2-carboxylic acid [5-(6-amino-pyridin-3-yl)-2-methoxy-benzyl]-(4-methylamino-cyclohexyl)-amide dihydrochloride] | < 50 | < 50
16 | < 50 |  | CN[C@H]1CC[C@@H](N(Cc2cc(-c3ccc(CO)cc3)ccc2OC)C(=O)c2sc3ccccc3c2Cl)CC1 [Compound 329, 3-Chloro-benzo[b]thiophene-2-carboxylic acid (4′-hydroxymethyl-4-methoxy-biphenyl-3-ylmethyl)-(4-methylamino-cyclohexyl)-amide hydrochloride] | < 50 | < 50
17 |  | 250 to 1000 | CN[C@H]1CC[C@H](N(Cc2cc(-c3ccccc3SC)ccc2OC)C(=O)c2sc3c(F)ccc(F)c3c2Cl)CC1 [Compound 408, 3-Chloro-4,7-difluoro-benzo[b]thiophene-2-carboxylic acid (4-methoxy-2′-methylsulfanyl-biphenyl-3-ylmethyl)-(4-methylamino-cyclohexyl)-amide hydrochloride] | 250 to 1000 | 
18 |  | 1000 to 2500 | CN[C@H]1CC[C@H](N(Cc2cc(-c3ccccc3[S+](C)[O-])ccc2OC)C(=O)c2sc3c(F)ccc(F)c3c2Cl)CC1 (some centres unmarked) [Compound 409, 3-Chloro-4,7-difluoro-benzo[b]thiophene-2-carboxylic acid (2′-methanesulfinyl-4-methoxy-biphenyl-3-ylmethyl)-(4-methylamino-cyclohexyl)-amide trifluoroacetate] | 250 to 1000 | 
19 |  | 1000 to 2500 | CN[C@H]1CC[C@H](N(Cc2cc(-c3ccccc3S(C)(=O)=O)ccc2OC)C(=O)c2sc3c(F)ccc(F)c3c2Cl)CC1 [Compound 411, 3-Chloro-4,7-difluoro-benzo[b]thiophene-2-carboxylic acid (2′-methanesulfonyl-4-methoxy-biphenyl-3-ylmethyl)-(4-methylamino-cyclohexyl)-amide hydrochloride] | 250 to 1000 | 
20 |  | < 50 | CN[C@H]1CC[C@H](N(Cc2cc(-c3cccc(S(C)(=O)=O)c3)ccc2OC)C(=O)c2sc3c(F)ccc(F)c3c2Cl)CC1 [Compound 412, 3-Chloro-4,7-difluoro-benzo[b]thiophene-2-carboxylic acid (3′-methanesulfonyl-4-methoxy-biphenyl-3-ylmethyl)-(4-methylamino-cyclohexyl)-amide hydrochloride] | < 50 | 
21 |  | < 50 | CN[C@H]1CC[C@H](N(Cc2cc(-c3cccnc3OC)ccc2OC)C(=O)c2sc3cccc(F)c3c2Cl)CC1 [Compound 413] | 50 to 250 | 
22 |  | 50 to 250 | CCOc1cc(-c2ccc(OC)c(CN(C(=O)c3sc4cccc(F)c4c3Cl)[C@H]3CC[C@H](NC)CC3)c2)ccn1 [Compound 415] | 50 to 250 | 
